Source: patent US7858738B2, “Synthetic human peptides and pharmaceutical compositions comprising them for the treatment of systemic lupus erythematosus” (Yeda Research and Development Co., Ltd., priority 2001, dated 2010)

How the values were obtained:
PBL of SLE patients [1] = experiment: Proliferative response of PBL of SLE patients to the human 16/6Id mAb; type: cell-based; conditions: for inhibition of the proliferative responses of PBL to the human 16/6Id mAb / inhibition of the proliferative responses of PBL to human 16/6Id mAb: PBL of one SLE patient; for inhibition of the proliferative responses of PBL to the human 16/6Id mAb: FIG. 6; for inhibition of the proliferative responses of PBL to human 16/6Id mAb: FIG. 7, reversed murine peptides as controls; for Percent Inhibition of proliferation of PBL: highest positive inhibition, peptide 50 or 100 μg/well; for Percent Inhibition of proliferation of PBL, Mean ± SD: mean over the 19 responder SLE patients (positive inhibitions, above 50%); for responders whose PBL proliferation was inhibited (inhibition above 50% considered positive): of the 19 responder SLE patients tested
Protocol: Induction and treatment of experimental SLE. In order to induce experimental SLE, BALB/c mice were immunized with 1-2 μg of the human mAb 16/6Id and boosted 3 weeks later. For the prevention of experimental SLE, mice were given hCDR1 or hCDR3 (mCDR1 or revmCDR1 as control peptide in Example 12) intravenously (i.v.) or s.c. concomitant with the immunization, and were injected weekly thereafter for 5 weeks. Treatment of an established disease started three and a half months following disease induction with the 16/6Id, when clinical manifestations were already observed. In Example 12, mice received 10 weekly injections (i.v. or s.c.) of mCDR1 or revmCDR1 at a dose of 100 μg/mouse. Prevention and treatment of SLE-like disease in (NZB×NZW)F1 mice with the hCDR1 or mCDR1 peptide. For prevention of SLE, mice at the age of 2 months, before disease manifestations are observed, were injected s.c. with hCDR1 (or mCDR1 in Example 12, 250 μg/mouse) once a week for 10 weeks. To treat an established disease, mice at the age of 5-7 months were injected with hCDR1 (in Example 12, mCDR1 s.c., 250 μg/mouse) once a week for 10 weeks. Proliferative Responses. PBL were isolated from heparinized venous blood by Ficoll-Hypaque (Pharmacia) density-gradient centrifugation. All assays were performed, in triplicate, in flat-bottomed microtiter plates (Falcon, Becton Dickinson, Oxmard, Calif., USA) in which 2×10^5 PBL were cultured in enriched RPMI-1640 as described (Dayan et al., 2000). The PBL were exposed to various concentrations (0.1-40 μg/well) of the human anti-DNA 16/6Id mAb with and without the addition of the various CDR-based peptides at a concentration of at least 10-fold excess over that of the 16/6Id. Phytohemagglutinin (PHA; 2 μg/well) was used as a control for culture conditions at each experiment. The cultures were incubated in 7.5% CO2 at 37° C. for 6 days. Eighteen hours before the cells were harvested, [^3H]-thymidine (0.5μ Ci of 5 Ci/mmol) (Nuclear Research Center, Negev, Israel) was added to all cultures. Results are expressed as the mean thymidine incorporation in counts per minute (CPM) of triplicate culture±SD, or as stimulation index (S.I.; the ratio of mean CPM at the optimal concentration of the human 16/6Id to the mean CPM in the presence of medium alone). A S.I.≧2 was considered a positive response (Dayan et al., 2000). Inhibition (the ratio of mean CPM in the presence of the 16/6Id and various CDR-based peptides to the mean CPM with the 16/6Id without the CDR-based peptide) above 50% was considered positive. Induction of Cytokine Production. Mice that were immunized with the human 16/6Id mAb and either treated or not with the CDR-based peptide, were killed at different periods during or after treatment with the peptide. Splenocytes and lymph node cells (LNC) were harvested and incubated (5×10^6/ml) in the presence of the 16/6Id. Supernatants were collected after 48 and 72 h. Assessment of Cytokines in the Supernatants. Supernatants were collected 48 hours following the initiation of the cultures and stored at −70° C. Measurements of IL-2, IL-10, IFN-γ, and TNF-α were performed by ELISA by using the relevant standards, capture and detecting Abs (Pharmingen) according to the manufacturer's instructions. TGF-β was determined by an ELISA. Briefly, plates were coated with the recombinant human TGF-β1 sRIII/Fc chimera (R & D Systems Inc., Minneapolis, Minn., USA), and the second Ab used was the biotinylated anti-human TGF-β1 antibody (R & D Systems Inc.). The substrate solution used was TMB color Reagent (Helix Diagnostics, West Sacramento, Calif.), and enzyme activity was evaluated by using 570- and 630-nm filters. Detection of SLE-Associated Clinical and Pathological Manifestations. Proteinuria was measured semiquantitatively by using Combistix kit (Ames Division, Bayer Diagnostics, Newbury, U.K.). White blood cells (WBC, for leukopenia) were counted after a 10-fold dilution of heparinized blood in distilled water containing 1% acetic acid (vol/vol). […]

PBL of SLE patients [2] = experiment: Proliferation of PBL of SLE patients stimulated with the mitogen PHA; type: cell-based, human; conditions: PBL of one SLE patient; PHA 2 μg/ml; FIG. 5
Protocol: To this end the peptides hCDR1 or hCDR3 were added to cultures of PBL of SLE patients that were stimulated with the mitogen phytohemagglutinin (PHA, 2 μg/ml).

PBL of SLE patients [3] = experiment: IL-2 secretion by PBL of SLE patients stimulated with the human 16/6Id mAb (CTLL line); type: cell-based; conditions: for patients whose PBL IL-2 secretion was inhibited: 23 responders stimulated by the human 16/6Id; for Maximum inhibition % (IL-2 secretion): PBL of 23 responders; for Maximum inhibition % (IL-2 secretion) / Inhibitory Activity* % (IL-2 secretion): IL-2 secretion with 16/6 Id alone = 100%; for inhibition of the IL-2 secretion by PBL: PBL of one SLE patient, FIG. 8; for Inhibitory Activity* % (IL-2 secretion): share of 23 responders with inhibition of 50% or more
Protocol: It was of interest to find out whether the hCDR peptides are capable of inhibiting IL-2 secretion by PBL of SLE patients following stimulation with the human 16/6Id mAb. […] To this end, PBL of SLE patients were incubated with the human 16/6Id mAb in the absence or presence of the peptides hCDR1 or hCDR3. Supernatants of the cultures were collected following 48 hours of incubation. Assays to determine levels of IL-2 in the supernatants were performed using the CTLL IL-2 dependent line. Briefly, cells of the CTLL line (2×10^4/well) were incubated in the presence of the different supernatants for 24 hours, followed by the addition of ^3H-thymidine for an additional 18-hour incubation period. Cells were then harvested and radioactivity counted using a β-counter. Results were calculated based on recombinant human IL-2 used as a standard. The ability of the peptides to inhibit the IL-2 secretion of PBL of 23 responders stimulated by the human 16/6Id was tested. […] Inhibition of proliferative responses of PBL directly correlated with IL-2 inhibition by the CDR-based peptides.

Row | Sequence | inhibition of the proliferative responses of PBL to the human 16/6Id mAb (PBL of SLE patients [1]) | inhibition of the proliferative responses of PBL to human 16/6Id mAb (PBL of SLE patients [1]) | Percent Inhibition of proliferation of PBL (PBL of SLE patients [1]; SLE patient 1) [%] | Percent Inhibition of proliferation of PBL (PBL of SLE patients [1]; SLE patient 2 (M. D.)) [%] | Percent Inhibition of proliferation of PBL (PBL of SLE patients [1]; SLE patient 3) [%] | Percent Inhibition of proliferation of PBL (PBL of SLE patients [1]; SLE patient 4) [%] | Percent Inhibition of proliferation of PBL (PBL of SLE patients [1]; SLE patient 5) [%] | Percent Inhibition of proliferation of PBL (PBL of SLE patients [1]; SLE patient 6) [%] | Percent Inhibition of proliferation of PBL (PBL of SLE patients [1]; SLE patient 7) [%] | Percent Inhibition of proliferation of PBL (PBL of SLE patients [1]; SLE patient 8 (S. D.)) [%] | Percent Inhibition of proliferation of PBL (PBL of SLE patients [1]; SLE patient 9) [%] | Percent Inhibition of proliferation of PBL (PBL of SLE patients [1]; SLE patient 10) [%] | Percent Inhibition of proliferation of PBL (PBL of SLE patients [1]; SLE patient 11) [%] | Percent Inhibition of proliferation of PBL (PBL of SLE patients [1]; SLE patient 12) [%] | Percent Inhibition of proliferation of PBL (PBL of SLE patients [1]; SLE patient 13) [%] | Percent Inhibition of proliferation of PBL (PBL of SLE patients [1]; SLE patient 14) [%] | Percent Inhibition of proliferation of PBL (PBL of SLE patients [1]; SLE patient 15) [%] | Percent Inhibition of proliferation of PBL (PBL of SLE patients [1]; SLE patient 16) [%] | Percent Inhibition of proliferation of PBL (PBL of SLE patients [1]; SLE patient 17) [%] | Percent Inhibition of proliferation of PBL (PBL of SLE patients [1]; SLE patient 18) [%] | also measured
1 | GYYWSWIRQPPGKGEEWIG (Human) [hCDR1, 19-mer peptide based on the CDR1 of the heavy chain of the human 16/6Id mAb] | inhibited efficiently | did inhibit efficiently | 62 | 70 | 69 | <50 | 88.5 | 80 | 76 | 58 | 69.5 | 68.2 | <50 | 82 | 63 | 56 | 63 | <50 | 70.5 | 51.5 | Percent Inhibition of proliferation of PBL (PBL of SLE patients [1]; SLE patient 19): 63%; Percent Inhibition of proliferation of PBL, Mean ± SD (PBL of SLE patients [1]): 68.12 ± 9.57%; responders whose PBL proliferation was inhibited (inhibition above 50% considered positive) (PBL of SLE patients [1]): 84.2%; inhibition of the proliferative responses of the PBL to the mitogen PHA (PBL of SLE patients [2]): could not inhibit; patients whose PBL IL-2 secretion was inhibited (PBL of SLE patients [3]): 21/23; Maximum inhibition % (IL-2 secretion) (PBL of SLE patients [3]): 84 ± 31%; inhibition of the IL-2 secretion by PBL (PBL of SLE patients [3]): 100%; Inhibitory Activity* % (IL-2 secretion) (PBL of SLE patients [3]): 91 (21/23) %
2 | YYCARGLLRGGWNDVDYYGMDV (Human) [hCDR3, peptide based on the CDR3 of the heavy chain of the human 16/6Id mAb] | inhibited efficiently | did inhibit efficiently | <50 | 75 | <50 | <50 | 87.5 | 80 | 70.4 | 56 | 65 | 71.8 | 72 | 86 | 64 | 74 | 69 | 68 | 77.8 | <50 | Percent Inhibition of proliferation of PBL (PBL of SLE patients [1]; SLE patient 19): 60.8%; Percent Inhibition of proliferation of PBL, Mean ± SD (PBL of SLE patients [1]): 71.82 ± 8.44%; responders whose PBL proliferation was inhibited (inhibition above 50% considered positive) (PBL of SLE patients [1]): 78.9%; inhibition of the proliferative responses of the PBL to the mitogen PHA (PBL of SLE patients [2]): could not inhibit; patients whose PBL IL-2 secretion was inhibited (PBL of SLE patients [3]): 19/23; Maximum inhibition % (IL-2 secretion) (PBL of SLE patients [3]): 78 ± 34%; inhibition of the IL-2 secretion by PBL (PBL of SLE patients [3]): 100%; Inhibitory Activity* % (IL-2 secretion) (PBL of SLE patients [3]): 83 (19/23) %
